Reference: patent US20240366637A1, “Compounds inhibiting the synergistic carsinogenic effect of heavy metals in the presence of other carcinogens for use in the treatment of cancer” (priority 2021, published 2024)

What was measured:
[1] = system: Salmonella typhimurium TA1535; conditions: cadmium chloride 0.5 mM as pro-mutagen, N-Methyl-N-nitrosourea 180 μM as mutagen, candidate in various concentrations; mutant revertants on solid media
Method: The operating hypothesis was tested with an AMES test (as described e.g. by Mandel and Ryser, 1984) based platform using Salmonella typhimurium TA1535 (Standard Ames Tester Strain), cadmium chloride as pro-mutagen (0.5 mM final concentration during treatment), N-Methyl-N-nitrosourea as mutagen (180 μM final concentration during treatment) and EDTA, phytic acid (IP6) and Unithiol (i.e. DMPS) as candidate cadmium-promoted mutagenicity antidotes (in various concentrations, see FIGS. 1 and 2).
The experiment included the following steps: • 1. Healthy growth of bacterial cells • 2. Absorption of cadmium chloride (as a non-genotoxic metabolic poison) under conditions of reduced metabolism (bacteria chilled on ice) • 3. Addition of candidate antidotes and metabolic activation (fresh growth medium, 37° C.) • 4. Addition of N-methyl-N-nitrosourea under metabolically active conditions to fix mutations (fresh growth medium, 37° C.) • 5. Screening for mutant revertants on solid media (standard, second generation Petri dish-based AMES test)

Salmonella typhimurium = conditions: synergistic with two nitrosoamines; cited from earlier work

| SMILES | inhibition of mutagenicity-promoting synergy between cadmium and N-methyl-N-nitrosourea [1] | increase of the mutagenicity of two common nitrosoamines, greater than expected from simple additivity (Salmonella typhimurium) |
| --- | --- | --- |
| O=P(O)(O)O[C@H]1[C@H](OP(=O)(O)O)[C@@H](OP(=O)(O)O)[C@H](OP(=O)(O)O)[C@@H](OP(=O)(O)O)[C@H]1OP(=O)(O)O [phytic acid] | dose-dependent inhibition | – |
| [Cl][Cd][Cl] [cadmium chloride] | – | up to 30 fold |
| O=C(O)CN(CCN(CC(=O)O)CC(=O)O)CC(=O)O [EDTA] | did not inhibit | – |
| O=S(=O)(O)CC(S)CS (stereo not shown) [Unithiol, 2,3-Dimercapto-1-propanesulfonic acid] | dose-dependent inhibition | – |
